One compound from patent US12708676B2, “Phosphate compounds for detecting neurological disorders” (Amydis, Inc., priority 2018, dated 2026) can be followed below.

≈ marks a conversion by molar mass, not a printed value. Like-named read-outs stand apart in the source and are kept apart here.

Broadly, the solubility is how much of the substance goes into solution per volume. For orientation: Kp means the ratio of the level in a tissue or fluid to that in plasma or blood.

Data set [1] can be described thus: Rabbit pharmacokinetics of Compound 9, Study 1 (retina, brain, blood). In kind it is in vivo. As to conditions: other: injection (site not specified), Study 1, 30 mg Compound 9 injected. As for the experimental part: (§1) Compound 9 was injected into rabbits as a solution in 0.1 M phosphate buffer, pH 7.4 such that rabbits received either 30 mg of Compound 9 (Study 1) or 28 mg of Compound 9 (Study 2). The purpose of these studies was to confirm that Compound 9 could easily be converted into Compound 7 in vivo.
Study 1: Rabbits received a 1.5 mL injection of a 20 mg/mL solution of Compound 9 in 0.1 M phosphate buffer, pH 7.4. Rabbits were sacrificed at the specified time points (N=3 per time point) in the tables below and the average concentration of Compound 9 and Compound 7 was determined in the retina (Table 3), brain (Table 4) and blood (Table 5).

Data set [2] concerns hyperphosphorylated three repeat tau protein. Description: Example 3: retinal fluorescent imaging of model mice after intravenous Compound 9. The settings on record: Compound 9 intravenously, retinas imaged ex vivo, example in present tense. Also noted: species or system mouse. As for the experimental part: Model mice having a detectable target protein, for example, an amyloid beta protein, or a phosphorylated tau protein, or an accumulated mass thereof, are administered Compound 9 intravenously. Retinas of the mice are removed and are mounted on slides. The retinas are washed with PBS 2 times for 5 minutes. A solution of 98% formic acid is added—5 minutes for antigen retrieval. The sampled are washed with distilled water—2 times for 5 minutes. The samples are equilibrated in 1×PBS for 15 minutes, then blocked with 10% goat/donkey serum in 1× PB ST (depending on antibodies) for 1 hour. Samples are covered in foil, and washed with 1× PBS 3 times for 5 minutes each. Samples are stained with DAPI (300 nM or 100 ng/mL) in dark for 10 minutes, then tissues are washed 3×10 minutes with PBS. Antifade DAKO mounting medium is added, and coverslip and kept under foil until imaging.
Fluorescent imaging study of the samples is conducted on a Leica DMI 4000B microscope (Leica, Germany) equipped with a TCS SPE camera and Leica 10, 20 and 40× objectives. The following lasers are used to visualize fluorescent probes pertaining to DAPI (blue, nuclear stain), Compound 7 (green) and hyperphosphorylated tau (red): 408, 488 and 568 nm. Z-stacked images are taken at 40× at 0.5 μm increments to visualize the entire thickness of the tissue.

The nature of data set [3]: Solubility of Compound 9 / phosphate prodrugs. It is filed as physicochemical. As to conditions: aqueous buffer; phosphate buffer at pH 7.4. An excerpt: Due to the poor water solubility and the large particle size of compounds such as Compound 7, prodrug derivatives of these compounds were investigated.
Data set [4] deals with Aβ. Description: Example 4: detection of Aβ in the retina of a TBI (blast) mouse model. As to conditions: blast model mice 24 hours after injury, Compound 9 intravenously; example in present tense. It is filed as in vivo. As for the experimental part:
This example is conducted to determine whether Compound 9 detects Aβ in the retina of a TBI mouse model.
Blast model mice 24 hours after injury and a non-injured mouse are administered Compound 9 intravenously. Mice retinas are scanned by scanning laser ophthalmoscopy (SLO).
Alternatively, or in addition to retinal scanning, retinal tissues are removed and stained with an anti-Aβ antibody (6E10).

Data set [5] can be described thus: Rabbit pharmacokinetics of Compound 9, Study 2 (retina, brain, blood/plasma). In kind it is in vivo. On the procedure: as §1
Study 2: The purpose of this study was to determine if higher concentrations of Compound 9 and/or Compound 7 was present at earlier time points in the tissues specified. Rabbits received a 1.4 mL injection of a 20 mg/mL solution of Compound 9 in 0.1 M phosphate buffer, pH 7.4. Blood was collected from rabbits (N=6) two minutes after receiving Compound 9 to determine the blood concentration at this time point (Table 8). Rabbits were then sacrificed at the specified time points (N=3 per time point) in the tables below and the average concentrations of Compound 9 and Compound 7 were determined in the retina (Table 6), brain (Table 7) and blood (Table 8).

On to `N#C/C(=C\c1ccc2cc(N3CCCCC3)ccc2c1)C(=O)NCCOCCOCCOP(=O)(O)O` [Compound 9], for which the concentration at 15 min was determined as 5440 ± 767 ng/mL in data set [1] (blood, read-out: Avg Conc., blood) and 0.439 ng/g in data set [1] (brain, read-out: Avg Conc., brain). The concentration at 30 min in data set [1] (blood, 30 min, read-out: Avg Conc., blood) is 374 ± 301 ng/mL. Moreover, the concentration at 60 min in data set [1] (blood, 60 min, read-out: Avg Conc., blood) was found to be 24.9 ± 31.8 ng/mL. For the same compound, the “Detection of hyperphosphorylated three repeat tau protein in the retina” value in data set [2] is reported as “detected in the retina, producing a detectable fluorescent signal”. Besides, the solubility in data set [3] fell in the range of 20 to 30 mg/mL (≈ 38.6 to 58 mM). Besides, in data set [4], the “Scanning laser ophthalmoscopy image of retina” value is reported as “showing the presence of Aβ plaques”. Further, the concentration at 5 min in data set [5] (brain, other: injection (site or type of injection not stated), rabbit, Study 2, 28 mg Compound 9 injected, 5 min, read-out: Avg Conc., brain) amounted to 7.2 ± 2.62 ng/g; in data set [5] (plasma, other: injection (site not specified), rabbit, Study 2, 28 mg Compound 9 injected, 5 min, read-out: Avg Conc., plasma), 40000 ± 11800 ng/mL. In addition, the concentration at 10 min in data set [5] (brain, other: injection (site or type of injection not stated), rabbit, Study 2, 28 mg Compound 9 injected, read-out: Avg Conc., brain) stood at 2.23 ± 0.426 ng/g; in data set [5] (plasma, other: injection (site not specified), rabbit, Study 2, 28 mg Compound 9 injected, read-out: Avg Conc., plasma), 8860 ± 1310 ng/mL. The Kp in data set [5] (brain, rabbit, after injection of Compound 9) was under 0.001. In addition, the “Conversion of Compound 9 to Compound 7 in vivo” value in data set [5] (healthy rabbit model) is given as “rapidly converted to Compound 7”. In addition, the concentration at 2 min in data set [5] (plasma, other: injection (site not specified), rabbit, Study 2, 28 mg Compound 9 injected, 2 min, read-out: Avg Conc., plasma) came to 67600 ± 18800 ng/mL. For the same compound, the “Avg Conc., retina” value in data set [5] (rabbit, Study 2, 28 mg Compound 9 injected, 5 min) is “remained undetectable”. Further, the Adverse reactions entry in data set [5] (rabbits, during the time course of the study) is listed as “no adverse reactions were noted”.
